Experimental findings from the METLIN SMRT retention time set (Domingo-Almenara et al. 2019) are described below.

This data set can be described thus: gradient 5% acetonitrile 3 min, to 50% in 2 min, to 85% in 15 min, held 3 min, 100 µL/min. The settings on record: column: Zorbax Extend-C18 2.1 x 50 mm; eluents: water / acetonitrile, 0.1% formic acid. An outline of the steps:
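Over 3 months, pure standards in mixtures of ~100 molecules were run by HPLC coupled to a quadrupole time-of-flight mass spectrometer in positive and negative ionization mode. The column was a Zorbax Extend-C18 (2.1 × 50 mm, 1.8 μm) at 100 μL/min, eluted with water and acetonitrile each holding 0.1% formic acid, with 40 μL dead and 900 μL dwell volumes. Retention time was determined from adduct peaks chosen by software and checked manually.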
Take `CCc1cccc(C)c1Nc1c(-c2ccc(Cl)cc2)nc2cnccn12`: the RP-LC retention time came out at 1110 s.

The compound `COCCCNC(=O)C1(C)Cn2nc(-c3ccccc3)cc2C(=O)N1c1ccccc1F` (centres undefined) came in with an RP-LC retention time of 830 s.

Turning to `Cn1nccc1-c1cccc(-c2noc(-c3cccc(F)c3)n2)c1`, the RP-LC retention time amounted to 1150 s.

Compound `CC(NC(=O)C1CCCN(C(=O)c2cc3sccc3n2C)C1)c1ccc2c(c1)OCCO2` (centres undefined) showed an RP-LC retention time of 838 s.

With `CCCc1ccc(S(=O)(=O)N2CCCC2c2nc(-c3ccc(F)cc3)no2)cc1` (centres undefined), the RP-LC retention time was found to be 1270 s.

In turn, `Cc1cc(C2CCCN2C(=O)Cc2ccc(F)cc2Cl)no1` (centres undefined) yielded an RP-LC retention time of 851 s.

For `O=C(Cn1nc(-c2ccccc2)c2cc(Cl)ccc21)NC1CCCC1`, the RP-LC retention time was determined as 1130 s.

As to `Cn1cc(-c2nnc(SCC(=O)N3CCc4ccccc4C3)n2C)c(-c2ccccc2)n1`, the RP-LC retention time came out at 754 s.

Compound `COc1cc(C(=O)NCC(c2cccs2)N2CCOCC2)cc(OC)c1OC` (centres undefined) displayed an RP-LC retention time of 607 s.

The compound `COc1ccc(Cl)cc1S(=O)(=O)NCCn1nc(C)cc1C` showed an RP-LC retention time of 719 s.

`Cc1cc(C)c(S(=O)(=O)N2CC(c3nc(-c4ccncc4)no3)C2)cc1C` came in with an RP-LC retention time of 974 s.

Compound `Cc1cccc(-n2c(=O)c3c(cc(C)n3C)n(CC(=O)Nc3cccc(C#N)c3)c2=O)c1` gave an RP-LC retention time of 846 s.

For the compound `O=C(Nc1ccccc1F)C1CCN(C(=O)c2ncn3c2COC(c2ccc(F)cc2)C3)CC1` (centres undefined), the RP-LC retention time is 738 s.

In turn, `O=C(CN1CCN(Cc2cccc(Cl)c2)C1=O)N1CCN(C2CCCCC2)CC1` came in with an RP-LC retention time of 648 s.

In turn, `O=C(Cc1nnc(-c2cccc(F)c2)o1)N1CCOCC1` registered an RP-LC retention time of 651 s.

As to `Cc1noc2ncnc(NCCN(C)Cc3ccccc3)c12`, the RP-LC retention time is 580 s.

Take `CCOC(=O)[C@@H](N)Cc1ccc(O)c(O)c1`: the RP-LC retention time amounted to 579 s.

For the compound `Cc1cc(C)c2[nH]c3c(c(=O)c2c1)CN(CC(=O)Nc1ccc2c(c1)OCO2)CC3`, the RP-LC retention time was determined as 626 s.

For the compound `O=C(Nc1cc(F)ccc1F)C1CCCN(c2ncnc3c2nc2n3CCCCC2)C1` (centres undefined), the RP-LC retention time amounted to 774 s.

For the compound `O=C1COc2cc(S(=O)(=O)N3CCC(C(=O)N4CCOCC4)CC3)c(Cl)cc2N1`, the RP-LC retention time amounted to 659 s.

`CCN(CC)S(=O)(=O)c1ccc(Cl)c(-c2nnc(-c3ccccc3)o2)c1` came in with an RP-LC retention time of 1120 s.

The compound `O=c1ccc(-c2ccccc2)nn1Cc1nc(-c2ccccc2Cl)no1` had an RP-LC retention time of 976 s.

Compound `Cc1sc(C)c(S(=O)(=O)N2CCN(c3ccccc3)CC2)c1-c1cc(C(F)(F)F)on1` had an RP-LC retention time of 1300 s.

`CC(C)n1c(N2CCN(C(=O)COc3ccc(F)cc3)CC2)cc(=O)n(C(C)C)c1=O` yielded an RP-LC retention time of 904 s.

The compound `O=C(Cc1ccccc1Br)NC1CCN(c2cc(-c3cccs3)[nH]n2)C1` (centres undefined) yielded an RP-LC retention time of 689 s.

Consider `CCOc1ccc(-c2csc(Cc3nc(-c4ccc5c(c4)OCO5)no3)n2)cc1`, for which the RP-LC retention time was determined as 1200 s.

In turn, `Cc1cccc(-c2nnc(SCc3cc(=O)n4c(C)csc4n3)o2)c1` registered an RP-LC retention time of 873 s.

`c1ccc2c(Oc3nc(Nc4ccc(N5CCOCC5)cc4)c4ncn(C5CCCCC5)c4n3)cccc2c1` displayed an RP-LC retention time of 1180 s.

`CCCCNC(=O)CC1CCN(C(=O)c2[nH]c(C)c(C)c2C)CC1` returned an RP-LC retention time of 764 s.

`O=C(CCn1cnc2ccccc2c1=O)N1CCN(CCn2cccn2)CC1` registered an RP-LC retention time of 539 s.

Regarding `Cc1ccc(CNC(=O)CCCN2C(=O)CCn3nc(-c4cccn4C)cc32)cc1`, the RP-LC retention time was found to be 795 s.

As to `CCCN1C(=O)c2ccccc2C(C(=O)N2CCOCC2)C1c1cc(OC)c(OC)c(OC)c1` (centres undefined), the RP-LC retention time turned out to be 684 s.

`Cc1nc(-c2cccc(C(=O)N3CCCc4ccccc43)c2)no1`: the RP-LC retention time was determined as 900 s.

The compound `Cn1nccc1-c1cccc(-c2noc(CNS(=O)(=O)c3ccc(F)cc3)n2)c1` displayed an RP-LC retention time of 868 s.

`Cc1nnc(CNC(=O)c2cccc(-n3cnnn3)c2)o1` registered an RP-LC retention time of 567 s.

`COc1ccc(-c2nc(-c3ccc4c(c3)ncn4CCN3CCCCC3)no2)cc1` gave an RP-LC retention time of 658 s.

Compound `O=C(C1CC(=O)N(c2cccc(-c3noc(C4CCC4)n3)c2)C1)N1CCN(c2ccccc2)CC1` (centres undefined) displayed an RP-LC retention time of 1010 s.

Regarding `O=C(CCc1nnn2c1CN(C(=O)Nc1ccccc1F)CC2)NC1CC1`, the RP-LC retention time stood at 618 s.

As for `CC(C)NC(=O)N(C1CC1)C1CCOC2(CCN(C(=O)Cc3ccsc3)CC2)C1` (centres undefined), the RP-LC retention time was 770 s.

For `Cc1ccc(-n2c(=O)c3c(cc(C)n3C)n(CC(=O)Nc3cccc(Cl)c3C)c2=O)cc1`, the RP-LC retention time was found to be 918 s.

Take `O=C(c1cn2cc(Cl)ccc2n1)N1CCN(c2ccccc2Cl)CC1`: the RP-LC retention time is 946 s.

Take `C=CCN1C(=O)COc2ccc(-c3csc(NC(=O)c4ccc(Cl)cc4)n3)cc21`: the RP-LC retention time was determined as 1100 s.

`CNC(=O)N1CCCN(S(C)(=O)=O)CC1` showed an RP-LC retention time of 533 s.

As to `COc1ccc(OCc2noc(CNC(=O)Nc3ccc(Cl)c(Cl)c3)n2)cc1`, the RP-LC retention time is 917 s.

For the compound `CCOc1ccc(NC(=O)c2cc(C)n3nccc3n2)cc1`, the RP-LC retention time turned out to be 917 s.

Take `O=C(Nc1ccc2c(c1)OCCO2)c1cc2c(s1)CN(C1CCCC1)C2`: the RP-LC retention time was determined as 621 s.

The compound `CCn1ncc(N2CCCC(CC(=O)N3CCC4(CC3)OCCO4)C2)cc1=O` (centres undefined) came in with an RP-LC retention time of 646 s.

`O=C(NCc1ccccc1F)c1c(O)c2cccnc2n(Cc2ccccc2)c1=O`: the RP-LC retention time is 1360 s.

The compound `Cc1noc(C)c1S(=O)(=O)N1CCC[C@H](n2c(=O)n(C)c3cccnc32)C1` had an RP-LC retention time of 816 s.

In turn, `COCc1noc([C@@H]2CC(F)(F)CN2S(=O)(=O)c2ccccc2)n1` showed an RP-LC retention time of 850 s.

In the case of `O=C1CSc2ccc(S(=O)(=O)N3CCC(C(=O)NC4CCCC4)CC3)cc2N1`, the RP-LC retention time came out at 746 s.

In turn, `CNCCC(Oc1ccccc1C)c1ccccc1` (centres undefined) came in with an RP-LC retention time of 778 s.

Turning to `O=C(Cn1cnc2ccccc2c1=O)N1CCC(c2nnc(-c3ccco3)o2)CC1`, the RP-LC retention time was 621 s.

Compound `CCOC(=O)C1=C(CN2CCCC2)NC(=O)NC1c1ccc(OC)cc1` (centres undefined) yielded an RP-LC retention time of 597 s.

In turn, `Cc1ccc2nc(N3CCN(c4ccccc4)CC3)c(-c3noc(C)n3)cc2c1` gave an RP-LC retention time of 699 s.

Take `CO[C@@H](C(=O)N1Cc2[nH]nc(NC(=O)c3ccc(N4CCN(C)CC4)cc3)c2C1)c1ccccc1`: the RP-LC retention time was found to be 614 s.

For the compound `Cc1ccc(Nc2nc(C)cc(N3CCN(S(=O)(=O)c4cc(C(C)C)ccc4C)CC3)n2)cc1`, the RP-LC retention time turned out to be 950 s.

In turn, `CCc1nc2cc(-c3noc(-c4ccccc4OC)n3)ccc2o1` came in with an RP-LC retention time of 1080 s.

Compound `Cc1cc(OCC(=O)N2CCC3(O)CCCCC3C2)c2c3c(c(=O)oc2c1)CCCC3` (centres undefined) displayed an RP-LC retention time of 859 s.

`O=S(=O)(Cc1cccc(F)c1)N1CCC(C2CCNC2)CC1` (centres undefined) showed an RP-LC retention time of 632 s.

`O=C(NCc1ccc(F)cc1Cl)C1=C2CCCN2c2ccc(F)cc2S1(=O)=O` had an RP-LC retention time of 933 s.

With `N#Cc1ccc(CN2CCC3(CC2)CN(C2CCC2)CC3CO)cc1` (centres undefined), the RP-LC retention time came to 606 s.

Take `Cc1nc(-c2cn(C(C)C)c3ncccc23)sc1C(=O)NCC(C)C`: the RP-LC retention time turned out to be 975 s.

For `O=C(NC1CCN(c2cc(-c3ccc(F)cc3)[nH]n2)C1)c1ccc(Cl)cc1` (centres undefined), the RP-LC retention time stood at 777 s.

`COc1ccc(F)cc1S(=O)(=O)N1CCC2(CCC(CN3CCN(C)CC3)O2)CC1` (centres undefined) came in with an RP-LC retention time of 601 s.

Take `Cc1cccc(-n2c(=O)c3c(cc(C)n3C)n(CC(=O)Nc3cccc(Cl)c3C)c2=O)c1`: the RP-LC retention time came out at 960 s.

The compound `CCc1ccc(N2CC(c3noc(-c4ccccn4)n3)CC2=O)cc1` (centres undefined) came in with an RP-LC retention time of 829 s.

`Fc1cc(F)cc(-c2nnc(Cc3nc(-c4ccc(Cl)cc4)no3)o2)c1` yielded an RP-LC retention time of 1130 s.

`CCn1ccc2c(cc(C(=O)Nc3cc(F)ccc3F)n2C)c1=O` gave an RP-LC retention time of 754 s.

Compound `O=C(COc1ccc(Cl)cc1)Nc1nc(-c2ccc(S(=O)(=O)N3CCOCC3)cc2)cs1` registered an RP-LC retention time of 1040 s.

With `Brc1ccc(C(c2nnc(-c3ccccc3)o2)N2CCN(c3ccccn3)CC2)cc1` (centres undefined), the RP-LC retention time amounted to 800 s.

Consider `O=C(Nc1cccc(OC(F)(F)F)c1)C1CCCN(c2nnc3ccccn23)C1` (centres undefined), for which the RP-LC retention time amounted to 784 s.

Compound `CCS(=O)(=O)N1CCCc2cc(C(=O)NC3CCCCC3)ccc21` showed an RP-LC retention time of 656 s.

With `CC(C)(C)CC(=O)N1CCN(c2nc(CN3CCCCCC3)cs2)CC1`, the RP-LC retention time stood at 668 s.

Consider `COc1ccc(-n2ccn3cc(-c4ccc(OC)c(OC)c4)nc3c2=O)cc1`, for which the RP-LC retention time turned out to be 723 s.

As to `CC(C)CC(NC(=O)OCc1ccccc1)C(=O)NC(Cc1c[nH]c2ccccc12)C(=O)O` (centres undefined), the RP-LC retention time came to 926 s.

As to `Cc1cc(C)n2nc(SCC(=O)NCCc3ccc(Cl)cc3)nc2n1`, the RP-LC retention time was found to be 719 s.

Compound `Cc1c(C(=O)N2CC(C)CC(C)C2)sc2ncn(CC(=O)N3CCC(C)CC3)c(=O)c12` (centres undefined) came in with an RP-LC retention time of 891 s.

`Cc1nc(-c2csc(S(=O)(=O)NCc3ccccc3Cl)c2)sc1C` returned an RP-LC retention time of 1030 s.
